How the values were obtained:
[1] = WS12 leaching into PBS packaging solution during autoclave (HPLC); format: physicochemical; details: standard contact lens sterilization and storage conditions
Protocol: Silicone hydrogel contact lenses were prepared by curing the formulation for stenfilcon A in contact lens molds. The cured stenfilcon A was removed from the molds and extracted by immersing them for 215 minutes in ethanol (EtOH) containing WS12 (Tocris Bioscience) in the loading concentrations shown in Table I. The lenses were removed from the EtOH and washed in DI water for approximately 6 minutes, followed by two exchanges of DI water for approximately 30 minutes each. The lenses were transferred to 6 mL glass vials containing 3 mL phosphate buffered saline at pH 7.5 (0.78 wt. % NaCl, 0.05 wt. % sodium phosphate monobasic, and 0.36 wt. % sodium phosphate dibasic), referred to herein as PBS. The vials were sealed and autoclaved.
Each autoclaved lens was transferred to a vial containing 3 ml EtOH and stored overnight on a 150 rpm shaker at room temperature to extract WS12 from the lens. The EtOH extracts and the PBS in which the lenses were autoclaved were submitted for analysis by HPLC (detection wavelength=250 nm) against calibration standards to determine the average amount of WS12 loaded into each (n=5) and whether the WS12 leaches from the lens during autoclave.

[2] = molecular target: transient receptor potential melastatin-8 (TRPM8) ion channels (Homo sapiens, UniProt Q7Z2W7); details: background statement; cited from earlier work
transient receptor potential melastatin-8 (TRPM8) ion channels, sequence (Q7Z2W7 whole entry, species assumed): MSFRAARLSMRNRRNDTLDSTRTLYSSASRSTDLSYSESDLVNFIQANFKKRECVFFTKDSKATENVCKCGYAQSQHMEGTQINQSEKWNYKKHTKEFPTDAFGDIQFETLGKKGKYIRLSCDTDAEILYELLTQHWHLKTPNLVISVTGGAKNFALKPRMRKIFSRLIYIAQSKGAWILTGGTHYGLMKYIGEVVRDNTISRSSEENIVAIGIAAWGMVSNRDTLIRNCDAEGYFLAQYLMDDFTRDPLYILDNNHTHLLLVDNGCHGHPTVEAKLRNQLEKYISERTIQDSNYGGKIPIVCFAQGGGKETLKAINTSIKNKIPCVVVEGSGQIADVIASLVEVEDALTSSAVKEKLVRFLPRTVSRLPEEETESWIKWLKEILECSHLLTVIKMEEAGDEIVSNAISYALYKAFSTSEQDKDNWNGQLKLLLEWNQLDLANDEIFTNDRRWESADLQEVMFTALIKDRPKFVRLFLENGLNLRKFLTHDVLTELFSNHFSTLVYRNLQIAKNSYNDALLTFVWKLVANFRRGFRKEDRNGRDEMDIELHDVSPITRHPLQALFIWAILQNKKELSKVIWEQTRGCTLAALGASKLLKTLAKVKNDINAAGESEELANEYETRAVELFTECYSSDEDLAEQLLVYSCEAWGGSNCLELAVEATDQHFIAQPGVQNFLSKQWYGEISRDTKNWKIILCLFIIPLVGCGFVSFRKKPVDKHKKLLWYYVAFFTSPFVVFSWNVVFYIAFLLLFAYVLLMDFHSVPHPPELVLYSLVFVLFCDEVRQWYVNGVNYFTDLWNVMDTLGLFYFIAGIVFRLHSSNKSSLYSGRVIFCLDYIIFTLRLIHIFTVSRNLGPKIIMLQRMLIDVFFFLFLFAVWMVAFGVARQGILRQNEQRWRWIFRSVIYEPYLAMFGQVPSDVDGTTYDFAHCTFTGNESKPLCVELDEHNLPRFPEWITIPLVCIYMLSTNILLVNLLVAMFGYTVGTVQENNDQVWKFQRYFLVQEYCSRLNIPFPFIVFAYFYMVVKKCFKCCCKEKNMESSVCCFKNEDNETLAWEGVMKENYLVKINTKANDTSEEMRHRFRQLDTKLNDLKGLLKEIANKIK

COc1ccc(NC(=O)C2CC(C)CCC2C(C)C)cc1 (centres unmarked) [WS12, N-(4-Methoxyphenyl)-5-methyl-2-(1-methylethyl)cyclohexanecarboxamide]
stability of WS12 in hydrogel contact lens material [1]: without degradation or leaching | activation of TRPM8 ion channels [2]: selectively activates

— US12397518B2, “WS12-releasing contact lens” (CooperVision International Limited, priority 2021, dated 2025)
